Here are results for 11 compounds from PubChem BioAssay (NCI).

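These data come from cells grown in 96-well plates and exposed to compound for 48 hours at five concentrations. TGI: total growth inhibition.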

Among the test systems are NCI-H460 lung; UO-31 renal; U251 CNS; SF-268 CNS; CAKI-1 renal; COLO 205 colon; IGROV1 ovarian; TK-10 renal; A498 renal; MDA-MB-435; HOP-62 NSCLC.
Common to all, as to assay: NCI-60 cell line screen, 48 h

With `CO/N=C1/c2sccc2[C@H](NC(=O)CNC(=O)OC(C)(C)C)[C@@H]1O`, the TGI in the assay on NCI-H460 lung, in the assay with UO-31 renal, in the assay with U251 CNS, in the assay on SF-268 CNS, in the assay on CAKI-1 renal and in the assay on COLO 205 colon was over 100 µM each time. The TGI in the assay with IGROV1 ovarian, in the assay on TK-10 renal, in the assay with A498 renal, in the assay on MDA-MB-435 and in the assay with HOP-62 NSCLC was over 100 µM in each case.
As for `CCOc1ccc(N=C/C=C(\Cl)c2ccc3ccccc3c2)cc1`, the TGI amounted to 44.8 µM in the assay on NCI-H460 lung; 29.9 µM with UO-31 renal; 33.4 µM with U251 CNS; 37.4 µM in the assay on SF-268 CNS; 34 µM with CAKI-1 renal; 37.7 µM with COLO 205 colon. Also, the TGI is 41.5 µM with IGROV1 ovarian; 35.7 µM in the assay on TK-10 renal; over 94.5 µM in the assay with A498 renal; 43.9 µM in the assay with MDA-MB-435; 29.8 µM in the assay with HOP-62 NSCLC.
Regarding `CCC[C@H](C)[C@H]1NC(=O)[C@@H](NC(=O)[C@@H](CC(C)C)N(C)C(=O)C2CCCN2C(=O)[C@H](C)O)[C@@H](C)OC(=O)[C@H](CC(C)C)N(C)C(=O)[C@@H]2CCCN2C(=O)[C@H](CC(C)C)NC(=O)[C@@H](C)C(=O)[C@H](C(C)C)OC(=O)C[C@@H]1O` (stereo partly specified), the TGI in the assay with NCI-H460 lung was 0.0289 µM; in the assay with UO-31 renal, 0.128 µM; in the assay with U251 CNS, under 0.0025 µM; with SF-268 CNS, 0.0303 µM; with CAKI-1 renal, 1.54 µM; with COLO 205 colon, under 0.0025 µM. Also, the TGI is 0.0256 µM with IGROV1 ovarian; 0.0946 µM in the assay with TK-10 renal; 0.0376 µM in the assay with A498 renal; 0.00519 µM with MDA-MB-435; 0.00842 µM in the assay on HOP-62 NSCLC.
With `CC(=O)/C(=C/n1c(=S)sc2ccccc21)C(=O)Nc1ccccc1C`, the TGI with NCI-H460 lung, with UO-31 renal, in the assay with U251 CNS, in the assay on SF-268 CNS, in the assay on CAKI-1 renal and in the assay with COLO 205 colon was over 100 µM throughout. Besides, the TGI with IGROV1 ovarian, in the assay with TK-10 renal, in the assay on A498 renal, in the assay with MDA-MB-435 and with HOP-62 NSCLC was over 100 µM in each case.
On to `Cc1ccc(C(=O)Nc2ccc(CP(=O)(O)O)cc2)cc1NC(=O)c1cccc(NC(=O)Nc2cccc(C(=O)Nc3cc(C(=O)Nc4ccc(CP(=O)(O)O)cc4)ccc3C)c2)c1`, for which the TGI in the assay on NCI-H460 lung, in the assay on UO-31 renal, in the assay on U251 CNS, in the assay with SF-268 CNS, with CAKI-1 renal and with COLO 205 colon was over 100 µM throughout. In addition, the TGI in the assay with IGROV1 ovarian, with TK-10 renal, with A498 renal, in the assay on MDA-MB-435 and in the assay on HOP-62 NSCLC was over 100 µM each time.
Take `N#Cc1c2c(c(Nc3ccc(F)cc3)n3c1nc1ccccc13)CCC2`: the TGI was 23 µM in the assay with NCI-H460 lung; 7.75 µM with UO-31 renal; 8.01 µM in the assay with U251 CNS; 18.1 µM in the assay with SF-268 CNS; 3.5 µM in the assay with CAKI-1 renal; 14.1 µM with COLO 205 colon. For the same compound, the TGI amounted to 11.1 µM in the assay with IGROV1 ovarian; 6.51 µM in the assay on TK-10 renal; 28.8 µM with A498 renal; 11 µM in the assay with MDA-MB-435; 11.2 µM in the assay with HOP-62 NSCLC.
As to `CN1C(=O)CN(NC(=O)C2=C(O)c3ccc(Br)cc3S(=O)(=O)N2)C1=S`, the TGI in the assay on NCI-H460 lung, in the assay on UO-31 renal, in the assay on U251 CNS, with SF-268 CNS, with CAKI-1 renal and in the assay with COLO 205 colon was over 100 µM throughout. For the same compound, the TGI with IGROV1 ovarian, in the assay on TK-10 renal, in the assay on A498 renal, in the assay with MDA-MB-435 and in the assay on HOP-62 NSCLC was over 100 µM throughout.
For `O=c1nc2c(c(-c3cccc(Cl)c3)[nH]1)COC/C2=C\c1cccc(Cl)c1`, the TGI in the assay on NCI-H460 lung, in the assay with UO-31 renal, in the assay with U251 CNS, with SF-268 CNS, in the assay on CAKI-1 renal and in the assay on COLO 205 colon was over 100 µM throughout. In addition, the TGI with IGROV1 ovarian, in the assay on TK-10 renal, in the assay with A498 renal, in the assay with MDA-MB-435 and in the assay with HOP-62 NSCLC was over 100 µM throughout.
Take `COC(=O)C1CC(C=[N+](C)C)=C(SC)N1` (stereo unspecified): the TGI with NCI-H460 lung, in the assay with UO-31 renal, with U251 CNS, in the assay with SF-268 CNS, in the assay on CAKI-1 renal and in the assay with COLO 205 colon was over 100 µM each time. For the same compound, the TGI in the assay with IGROV1 ovarian, with TK-10 renal, in the assay with A498 renal, with MDA-MB-435 and in the assay with HOP-62 NSCLC was over 100 µM each time.
Consider `CC(=O)OCC1OC(n2c(=S)[nH]c(-c3ccccc3)c(C#N)c2=O)C(OC(C)=O)C(OC(C)=O)C1OC(C)=O` (stereo unspecified), for which the TGI in the assay with NCI-H460 lung, with UO-31 renal, with U251 CNS, in the assay on SF-268 CNS, in the assay on CAKI-1 renal and in the assay with COLO 205 colon was over 100 µM in each case. Also, the TGI in the assay on IGROV1 ovarian, in the assay on TK-10 renal, with A498 renal, in the assay with MDA-MB-435 and in the assay on HOP-62 NSCLC was over 100 µM each time.
Turning to `CN(O)C(=O)Cc1ccc(OCc2cccc(Cl)c2)cc1`, the TGI in the assay on NCI-H460 lung, with UO-31 renal, in the assay on U251 CNS, with SF-268 CNS, in the assay on CAKI-1 renal and in the assay with COLO 205 colon was over 100 µM in each case. Moreover, the TGI in the assay on IGROV1 ovarian is over 100 µM; in the assay on TK-10 renal it was over 100 µM; in the assay with A498 renal, 94.3 µM; in the assay on MDA-MB-435 it was over 100 µM; in the assay on HOP-62 NSCLC, over 100 µM.
